From patent publication US20090060984A1, “ANIONIC SURFACTANTS LETHAL TO GRAM-POSITIVE BACTERIA” (priority 2007, published 2009)
Read-outs that look alike come from different tables or passages of the source.

How the values were obtained:
E. coli = assay type: cell-based, Escherichia coli; details: 24 h contact time
Method: Escherichia coli ATCC 11229 (Culti-loops, Remel Europe, Dartford, Kent, UK) and Pseudomonas aeruginosa ATCC 15442 (Cuti-loops, Remel Europe, Dartford, Kent, UK) were selected as model Gram-negative organisms for the challenge testing of the antimicrobial coatings. Each bacterial strain was streaked for isolated colonies on Tryptic Soy Agar (TSA) plates (Difco, Becton Dickinson, Sparks, Md., U.S.A.) and incubated at 37° C. for 12 to 18 hours. Broth cultures were prepared by first picking 1-2 isolated colonies from TSA plates and inoculating 5 mL Tryptic Soy Broth (TSB; Difco, Becton Dickinson, Sparks, Md., U.S.A.) in a 16 mm test tube. This culture was grown in a shaking water bath at 150 RPM for 8 hours at 37° C. After the eight hours, 125 μL of this culture was added to 50 mL of TSB in a side-arm Klett flask and grown for approximately 8 hours in shaking water bath (150 RPM) at 37° C. The bacterial broths were grown to an A590 of 1.2-1.5, which correlated to approximately 10^9 CFU (colony forming units)/mL. 25 mL of this broth were transferred to a sterile 30 mL Oakridge tube and centrifuged at 12,000×g for 10 minutes at 4° C. (Sorval SS34 rotor) to pelletize the bacteria. The bacterial pellet was washed once and resuspended in 25 mL of phosphate buffer solution (PBS; BBL, FTA Hemaglutination Buffer, Becton Dickinson, Sparks, Md., U.S.A.). The suspension was diluted with PBS to achieve the target range of 10^5-10^6 CFU/mL and used to inoculate the slides containing antibacterial coatings.
Xylene/methanol (5:1 by weight) is used to dissolve the silver surfactants to facilitate homogeneously mixing with the alkyd resin composition.
A minus sign (−) denotes no growth, a plus sign (+) denotes confluent growth, and a capital P (P) denotes […].
Xylene/methanol (5:1 by weight) is used to dissolve the silver surfactants to facilitate homogeneously mixing with the acrylic resin composition.
The same laboratory experimental solvent based acrylic paint described in Example 34 is used to challenge E. coli by adding various levels of the invention silver anionic surfactants as described in Example 34.
A commercially available 2K epoxy resin paint is obtained from a local paint store (Sherwin Williams High Solids Epoxy Tile Clad HS; Part A B62WC11; Part B B60VZ75, The Sherwin Williams Company) and the same silver anionic surfactants described in Example 35 are used to prepare test coatings on microscope slides containing various levels of silver ion. These surfactants are dissolved in xylene/methanol (5:1 by weight) to facilitate their quantitative addition to the coating mixture.

S. aureus = assay type: cell-based, Staphylococcus aureus; details: laboratory acrylic clearcoat, 24 h contact time
Excerpt: A laboratory experimental solvent based acrylic paint is formulated and then used to challenge S. aureus by adding various levels of the invention silver anionic surfactants as described in Example 33. A binder is made by solution polymerization of butyl acrylate (25% w/w), methylmethacrylate (73.5% w/w), and methacrylic acid (1.5% w/w) in amylacetate using thermal initiation. This solution polymer is then used to make a 60% solids clearcoat binder in xylene/methanol (5:1 by weight). The silver anionic surfactants are dissolved in this same xylene/methanol mixture prior to addition to the clearcoat.

## CCCCC(CC)COC(=O)CC(C(=O)OCC(CC)CCCC)S(=O)(=O)[O-].[Ag+] (stereo not shown) [AgAOT]
E. coli; alkyd resin paint, 0.0012 weight % Ag in coating
  E. coli growth on coating: +
E. coli; alkyd resin paint, 0.003 weight % Ag in coating
  E. coli growth on coating: +
E. coli; alkyd resin paint, 0.012 weight % Ag in coating
  E. coli growth on coating: −
E. coli; alkyd resin paint, 0.03 weight % Ag in coating
  E. coli growth on coating: −
E. coli; alkyd resin paint, 0.06 weight % Ag in coating
  E. coli growth on coating: −
E. coli; alkyd resin paint, 0.12 weight % Ag in coating
  E. coli growth on coating: −
E. coli; alkyd resin paint
  Silver level effective at preventing any growth: 0.012 % w/w
  Silver level partially effective: 0.006 % w/w
E. coli; commercial 2K epoxy paint, 0.0012 weight % Ag in coating
  E. coli growth on coating: +
E. coli; commercial 2K epoxy paint, 0.003 weight % Ag in coating
  E. coli growth on coating: +
E. coli; commercial 2K epoxy paint, 0.006 weight % Ag in coating
  E. coli growth on coating: +
E. coli; commercial 2K epoxy paint, 0.012 weight % Ag in coating
  E. coli growth on coating: +
E. coli; commercial 2K epoxy paint, 0.03 weight % Ag in coating
  E. coli growth on coating: +
E. coli; commercial 2K epoxy paint, 0.06 weight % Ag in coating
  E. coli growth on coating: −
E. coli; commercial 2K epoxy paint, 0.12 weight % Ag in coating
  E. coli growth on coating: −
E. coli; commercial 2K epoxy paint
  Silver level giving complete inhibition of growth: 0.06 % w/w
E. coli; commercial solvent borne acrylate paint, 0.0012 weight % Ag in coating
  E. coli growth on coating: +
E. coli; commercial solvent borne acrylate paint, 0.003 weight % Ag in coating
  E. coli growth on coating: +
E. coli; commercial solvent borne acrylate paint, 0.006 weight % Ag in coating
  E. coli growth on coating: +
E. coli; commercial solvent borne acrylate paint, 0.012 weight % Ag in coating
  E. coli growth on coating: +
E. coli; commercial solvent borne acrylate paint, 0.06 weight % Ag in coating
  E. coli growth on coating: −
E. coli; commercial solvent borne acrylate paint, 0.12 weight % Ag in coating
  E. coli growth on coating: −
E. coli; commercial solvent borne acrylic paint
  Silver level partially effective: 0.03 % Ag w/w
E. coli; laboratory solvent borne acrylate paint, 0.0012 weight % Ag in coating
  E. coli growth on coating: +
E. coli; laboratory solvent borne acrylate paint, 0.003 weight % Ag in coating
  E. coli growth on coating: +
E. coli; laboratory solvent borne acrylate paint, 0.006 weight % Ag in coating
  E. coli growth on coating: +
E. coli; laboratory solvent borne acrylate paint, 0.012 weight % Ag in coating
  E. coli growth on coating: +
E. coli; laboratory solvent borne acrylate paint, 0.03 weight % Ag in coating
  E. coli growth on coating: +
E. coli; laboratory solvent borne acrylate paint, 0.06 weight % Ag in coating
  E. coli growth on coating: −
E. coli; laboratory solvent borne acrylate paint, 0.12 weight % Ag in coating
  E. coli growth on coating: −
S. aureus
  Silver level with partial growth: this lowest level
